# Assays:
# Sprague-Dawley rats [1] = assay: Loss of righting reflex (LORR) following intravenous administration; assay type: in vivo, rat; conditions: for LORR duration, mean (SEM): 12 mg/kg IV over 30 s
# HCN1 K^+ Channel = target: T1, HCN1 K^+ Channel (Homo sapiens, UniProt O60741); assay: Molecular target binding profile: patch-clamp functional assay (Eurofins Panlabs 952727); assay type: cell-based
# T1 construct: Eurofins Panlabs Ltd., Taipei, Taiwan 952727
# T1 sequence (O60741 1-890): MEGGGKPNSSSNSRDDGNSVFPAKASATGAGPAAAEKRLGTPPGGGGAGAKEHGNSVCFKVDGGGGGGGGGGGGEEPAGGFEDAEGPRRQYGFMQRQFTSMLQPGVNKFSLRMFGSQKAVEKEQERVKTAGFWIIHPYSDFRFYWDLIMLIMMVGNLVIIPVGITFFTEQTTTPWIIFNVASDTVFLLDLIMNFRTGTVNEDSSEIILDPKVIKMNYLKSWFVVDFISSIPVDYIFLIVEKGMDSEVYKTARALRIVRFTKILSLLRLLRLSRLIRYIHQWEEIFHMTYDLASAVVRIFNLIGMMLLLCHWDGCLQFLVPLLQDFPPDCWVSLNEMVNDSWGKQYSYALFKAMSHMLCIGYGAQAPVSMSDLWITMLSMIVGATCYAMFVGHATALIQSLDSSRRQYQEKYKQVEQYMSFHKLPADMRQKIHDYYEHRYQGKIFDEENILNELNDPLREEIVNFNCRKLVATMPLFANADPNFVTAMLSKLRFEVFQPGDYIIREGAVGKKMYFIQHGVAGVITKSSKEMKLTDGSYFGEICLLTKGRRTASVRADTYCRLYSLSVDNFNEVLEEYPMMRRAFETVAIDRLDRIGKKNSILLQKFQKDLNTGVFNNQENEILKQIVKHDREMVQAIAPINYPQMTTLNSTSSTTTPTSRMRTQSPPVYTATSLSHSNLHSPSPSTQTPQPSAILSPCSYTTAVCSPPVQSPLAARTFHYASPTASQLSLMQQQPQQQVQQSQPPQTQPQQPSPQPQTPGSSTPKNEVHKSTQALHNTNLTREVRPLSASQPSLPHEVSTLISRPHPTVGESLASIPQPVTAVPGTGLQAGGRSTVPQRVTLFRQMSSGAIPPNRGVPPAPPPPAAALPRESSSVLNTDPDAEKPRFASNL
# Sprague-Dawley rats [2] = assay: Thermal tail flick latency in rats with saline or morphine osmotic minipumps (opioid tolerance); assay type: in vivo, rat
# Sprague-Dawley rats [3] = assay: Behavioural dysfunction scoring in minipump rats; conditions: 12 mg/kg IV over 30 s
# Sprague-Dawley rats [4] = assay: Thermal sensitivity (tail flick latency) testing after bolus injection or infusion; assay type: in vivo, rat; conditions: pre-emptive analgesia, hypnotic and sub-hypnotic IV dosing regimens
# Sprague-Dawley rats [5] = assay: Pre-pulse inhibition (PPI) of acoustic startle and behavioural testing; assay type: in vivo, rat
# Ca^2+ Channel L-Type = Ca^2+ Channel L-Type (Rattus norvegicus, UniProt P22002); assay type: binding; conditions: only quoted where inhibition > 15%, read-out: Percent Inhibition at 10 μM
# Sequence of Ca^2+ Channel L-Type (P22002 whole entry): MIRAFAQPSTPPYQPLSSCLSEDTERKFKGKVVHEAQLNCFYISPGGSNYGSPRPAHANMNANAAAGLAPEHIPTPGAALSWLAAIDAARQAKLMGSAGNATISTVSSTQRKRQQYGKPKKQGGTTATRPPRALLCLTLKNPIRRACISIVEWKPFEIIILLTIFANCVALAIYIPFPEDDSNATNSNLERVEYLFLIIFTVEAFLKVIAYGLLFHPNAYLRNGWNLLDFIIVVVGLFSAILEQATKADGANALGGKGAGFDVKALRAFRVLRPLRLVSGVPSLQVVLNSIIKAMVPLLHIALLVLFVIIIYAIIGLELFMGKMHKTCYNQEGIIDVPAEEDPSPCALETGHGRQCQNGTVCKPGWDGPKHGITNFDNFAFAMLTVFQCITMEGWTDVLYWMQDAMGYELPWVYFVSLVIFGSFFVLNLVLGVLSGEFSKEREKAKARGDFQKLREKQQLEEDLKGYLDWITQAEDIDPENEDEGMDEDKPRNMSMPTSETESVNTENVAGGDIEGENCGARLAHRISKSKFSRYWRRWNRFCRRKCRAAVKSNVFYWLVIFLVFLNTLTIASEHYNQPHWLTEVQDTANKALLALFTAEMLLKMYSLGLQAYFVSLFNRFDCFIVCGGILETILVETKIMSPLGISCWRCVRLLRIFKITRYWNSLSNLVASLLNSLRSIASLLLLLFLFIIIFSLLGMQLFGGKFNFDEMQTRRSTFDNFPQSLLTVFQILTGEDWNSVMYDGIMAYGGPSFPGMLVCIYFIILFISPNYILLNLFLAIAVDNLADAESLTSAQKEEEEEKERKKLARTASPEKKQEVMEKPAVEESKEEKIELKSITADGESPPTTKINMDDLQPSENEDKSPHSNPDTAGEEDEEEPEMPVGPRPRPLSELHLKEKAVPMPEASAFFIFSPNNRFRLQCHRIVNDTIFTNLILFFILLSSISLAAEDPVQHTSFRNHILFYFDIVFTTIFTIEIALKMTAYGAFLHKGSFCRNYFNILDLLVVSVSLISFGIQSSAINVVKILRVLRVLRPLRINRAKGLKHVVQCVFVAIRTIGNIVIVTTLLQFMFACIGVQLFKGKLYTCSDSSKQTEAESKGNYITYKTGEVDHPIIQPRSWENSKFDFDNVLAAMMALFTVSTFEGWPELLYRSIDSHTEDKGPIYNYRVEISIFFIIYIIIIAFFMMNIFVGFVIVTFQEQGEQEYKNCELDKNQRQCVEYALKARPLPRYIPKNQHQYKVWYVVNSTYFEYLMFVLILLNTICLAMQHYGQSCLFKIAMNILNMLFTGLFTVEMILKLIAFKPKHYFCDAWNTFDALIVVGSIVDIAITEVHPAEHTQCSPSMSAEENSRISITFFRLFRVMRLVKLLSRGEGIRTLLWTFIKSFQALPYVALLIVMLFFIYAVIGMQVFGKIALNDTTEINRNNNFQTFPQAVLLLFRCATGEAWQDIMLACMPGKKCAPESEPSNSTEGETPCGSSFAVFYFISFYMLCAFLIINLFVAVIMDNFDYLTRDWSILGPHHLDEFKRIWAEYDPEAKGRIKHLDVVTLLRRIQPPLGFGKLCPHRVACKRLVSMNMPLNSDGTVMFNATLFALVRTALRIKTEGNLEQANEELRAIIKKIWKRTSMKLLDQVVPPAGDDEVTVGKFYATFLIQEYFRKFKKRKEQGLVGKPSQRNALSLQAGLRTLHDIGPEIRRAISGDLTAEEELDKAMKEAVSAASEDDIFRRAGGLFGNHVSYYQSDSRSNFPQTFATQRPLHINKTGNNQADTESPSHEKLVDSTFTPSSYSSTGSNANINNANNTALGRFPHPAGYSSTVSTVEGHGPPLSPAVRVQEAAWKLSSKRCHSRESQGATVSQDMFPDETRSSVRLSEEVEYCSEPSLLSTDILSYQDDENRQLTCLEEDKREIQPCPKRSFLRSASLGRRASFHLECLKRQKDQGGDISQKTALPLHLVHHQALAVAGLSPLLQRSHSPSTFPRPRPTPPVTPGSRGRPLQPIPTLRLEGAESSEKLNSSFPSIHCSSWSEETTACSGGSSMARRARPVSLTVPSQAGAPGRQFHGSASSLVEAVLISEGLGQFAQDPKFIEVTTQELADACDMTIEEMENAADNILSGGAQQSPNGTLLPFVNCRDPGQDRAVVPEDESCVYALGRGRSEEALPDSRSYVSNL
structure (smiles),measurement,setting,value
CNC1(c2ccccc2Cl)CCCCC1=O (stereo not drawn) [Ketamine],"LORR duration, mean (SEM)","Sprague-Dawley rats [1]; rats with morphine minipump (6 mg daily), day 1",247.0 (28.4) seconds
same,"LORR duration, mean (SEM)","Sprague-Dawley rats [1]; rats with morphine minipump (6 mg daily), day 6",272.5 (12.9) seconds
same,"LORR duration, mean (SEM)","Sprague-Dawley rats [1]; rats with saline minipump, day 1",189.2 (23.8) seconds
same,"LORR duration, mean (SEM)","Sprague-Dawley rats [1]; rats with saline minipump, day 6",277.0 (16.9) seconds
same,"Induction of LORR, animals affected","Sprague-Dawley rats [1]; 12 mg/kg over 30 s, rats with saline or morphine minipumps, days one and six",all animals
same,ED50,"Sprague-Dawley rats [1]; Rattus norvegicus, rats, 30 s bolus intravenous injection",9.6 mg/kg
same,"Duration of loss of righting, mean (SEM)","Sprague-Dawley rats [1]; rats, 10 minute hypnotic IV infusion (KEA-1010 total 56 mg/kg; ketamine total 28 mg/kg)",418.0 (86.4) seconds
same,"Duration of loss of righting, mean (SEM)","Sprague-Dawley rats [1]; rats, hypnotic IV bolus over 15 s (KEA-1010 11 mg/kg; ketamine 10 mg/kg)",491.8 (67.7) seconds
same,Slope of LORR duration vs. dose curves,"Sprague-Dawley rats [1]; rats, intravenous injection over 30 s",69.8 s/mg/kg
same,IC50,HCN1 K^+ Channel,> 100 µM
same,inhibition at 100 µM,"HCN1 K^+ Channel; patch-clamp assay quoted at 100 μM, not 10 μM (top dose employed), read-out: Percent Inhibition",15%
same,"Thermal tail flick latency, augmentation of morphine analgesia","Sprague-Dawley rats [2]; 12 mg/kg IV over 30 s, morphine minipump animals, day one",augmented morphine mediated analgesia
same,Thermal tail flick latency in opioid tolerant rats,"Sprague-Dawley rats [2]; 12 mg/kg IV over 30 s, morphine minipump rats, day six",TFL prolongation of similar magnitude to that of saline mini-pump subjects
same,Thermal tail flick latency,"Sprague-Dawley rats [2]; 12 mg/kg IV over 30 s, opioid-naïve rats, day one post saline minipump insertion",Prolongation of thermal tail flick
same,Thermal tail flick latency,"Sprague-Dawley rats [2]; 12 mg/kg IV over 30 s, saline minipump rats, day six",prolonged tail flick latency
same,Time of gradual return to normal behavioural patterns,Sprague-Dawley rats [3]; minipump rats,40 to 50 min
same,Time of maximal behavioural dysfunction,Sprague-Dawley rats [3]; minipump rats,5 min
same,Behavioural dysfunction score / behavioural aberration,"Sprague-Dawley rats [3]; saline or morphine minipump rats, days one and six",profound behavioural aberration
same,Percent Inhibition at 10 μM,"GABAA Receptor; 10 μM, only quoted where inhibition > 15%",− (Percent Inhibition at 10 μM only quoted where inhibition > 15%)
same,IC50,GABAA Receptor; radioligand binding,> 10 µM
same,Thermal tail flick latency,Sprague-Dawley rats [4],prolonged thermal tail flick latency
same,Pre-pulse inhibition (PPI) effect,"Sprague-Dawley rats [5]; 5 minutes after IV dosing, ketamine 10 mg/kg, KEA-1010 11 mg/kg, KEA-1037 10 mg/kg",disrupted the PPI effect
same,Percent PPI or startle amplitude,Sprague-Dawley rats [5]; 30 min after drug administration,No statistically significant differences
same,Ataxia,"Sprague-Dawley rats [5]; behavioural testing post dosing, ketamine 10 mg/kg, KEA-1010 11 mg/kg, KEA-1037 10 mg/kg IV",greater ataxia at 23 and 48 min post dosing compared with vehicle
same,inhibition at 10 µM,Ca^2+ Channel L-Type,24%
CN1CC[C@]23c4c5ccc(O)c4O[C@H]2[C@@H](O)C=C[C@H]3[C@H]1C5 [morphine],Thermal tail flick latency compared with vehicle treated animals,Sprague-Dawley rats [2]; 24 h of continuous morphine treatment via minipump (6 mg daily),significant antinociception
same,Time to development of tolerance to thermal tail flick stimuli,Sprague-Dawley rats [2]; continuous subcutaneous pump administration of morphine (6 mg/day) in rats,3 to 4 days

# Source: PMC6923863 (BMC Pharmacology & Toxicology, 2019)
